Reference: patent US20080280920A1, “Plasminogen Activator Inhibitor-1 Inhibitors” (priority 2005, published 2008)

Legend:
[1] = system: OVCAR-3; assay: NCI anticancer screen, OVCAR-3; assay type: cell-based, human; details: Homo sapiens; OVCAR-3, Ovarian, 48 h
[2] = system: SK-MEL-2; assay: NCI anticancer screen, SK-MEL-2; assay type: cell-based, human; details: Homo sapiens; SK-MEL-2, Melanoma, 48 h
[3] = system: A549/ATCC; assay: NCI anticancer screen, A549/ATCC; assay type: cell-based, human; details: Homo sapiens, Non-Small Cell Lung, 48 h
[4] = system: U251; assay: NCI anticancer screen, U251; assay type: cell-based, human; details: Homo sapiens, U-251; U251, CNS, 48 h
[5] = system: PC-3; assay: NCI anticancer screen, PC-3; assay type: cell-based, human; details: Homo sapiens; PC-3, Prostate, 48 h
[6] = system: MDA-MB-435; assay: NCI anticancer screen, MDA-MB-435; assay type: cell-based, human; details: Homo sapiens; MDA-MB-435, Breast, 48 h
[7] = system: HT29; assay: NCI anticancer screen, HT29; assay type: cell-based, human; details: Homo sapiens, HT-29; HT29, Colon, 48 h
[8] = system: KM12; assay: NCI anticancer screen, KM12; assay type: cell-based, human; details: Homo sapiens; KM12, Colon, 48 h
[9] = system: NCI-H23; assay: NCI anticancer screen, NCI-H23; assay type: cell-based, human; details: Homo sapiens; NCI-H23, Non-Small Cell Lung, 48 h
[10] = system: MDA-MB-231/ATCC; assay: NCI anticancer screen, MDA-MB-231/ATCC; assay type: cell-based, human; details: Homo sapiens, Breast, 48 h
[11] = system: SK-MEL-5; assay: NCI anticancer screen, SK-MEL-5; assay type: cell-based, human; details: Homo sapiens; SK-MEL-5, Melanoma, 48 h
[12] = system: SNB-75; assay: NCI anticancer screen, SNB-75; assay type: cell-based, human; details: Homo sapiens; SNB-75, CNS, 48 h
[13] = system: UACC-257; assay: NCI anticancer screen, UACC-257; assay type: cell-based, human; details: Homo sapiens; UACC-257, Melanoma, 48 h
[14] = system: NCI-H522; assay: NCI anticancer screen, NCI-H522; assay type: cell-based, human; details: Homo sapiens; NCI-H522, Non-Small Cell Lung, 48 h
[15] = system: EKVX; assay: NCI anticancer screen, EKVX; assay type: cell-based, human; details: Homo sapiens, Non-Small Cell Lung, 48 h
[16] = system: MALME-3M; assay: NCI anticancer screen, MALME-3M; assay type: cell-based, human; details: Homo sapiens, Melanoma, 48 h
[17] = system: CAKI-1; assay: NCI anticancer screen, CAKI-1; assay type: cell-based, human; details: Homo sapiens; CAKI-1, Renal, 48 h
[18] = system: HCT-116; assay: NCI anticancer screen, HCT-116; assay type: cell-based, human; details: Homo sapiens; HCT-116, Colon, 48 h
[19] = system: UO-31; assay: NCI anticancer screen, UO-31; assay type: cell-based, human; details: Homo sapiens; UO-31, Renal, 48 h
[20] = system: NCI-H226; assay: NCI anticancer screen, NCI-H226; assay type: cell-based, human; details: Homo sapiens; NCI-H226, Non-Small Cell Lung, 48 h
[21] = system: K-562; assay: NCI anticancer screen, K-562; assay type: cell-based, human; details: Homo sapiens, K562; K-562, Leukemia, 48 h
[22] = system: SK-MEL-28; assay: NCI anticancer screen, SK-MEL-28; assay type: cell-based, human; details: Homo sapiens; SK-MEL-28, Melanoma, 48 h
[23] = system: NCI/ADR-RES; assay: NCI anticancer screen, NCI/ADR-RES; assay type: cell-based, human; details: Homo sapiens, Breast, 48 h
[24] = system: SK-OV-3; assay: NCI anticancer screen, SK-OV-3; assay type: cell-based, human; details: Homo sapiens; SK-OV-3, Ovarian, 48 h
[25] = system: OVCAR-4; assay: NCI anticancer screen, OVCAR-4; assay type: cell-based, human; details: Homo sapiens; OVCAR-4, Ovarian, 48 h
[26] = system: IGR-OV1; assay: NCI anticancer screen, IGR-OV1; assay type: cell-based, human; details: Homo sapiens, IGROV-1; IGR-OV1, Ovarian, 48 h
[27] = system: ACHN; assay: NCI anticancer screen, ACHN; assay type: cell-based, human; details: Homo sapiens, Renal, 48 h
[28] = system: TK-10; assay: NCI anticancer screen, TK-10; assay type: cell-based, human; details: Homo sapiens; TK-10, Renal, 48 h
[29] = system: SN12C; assay: NCI anticancer screen, SN12C; assay type: cell-based, human; details: Homo sapiens, 48 h, Renal
[30] = system: 60 different human cancer cell lines; assay: NCI in vitro anticancer screen (whole panel); assay type: cell-based; details: NCI screen, 48 h
[31] = system: OVCAR-8; assay: NCI anticancer screen, OVCAR-8; assay type: cell-based, human; details: Homo sapiens; OVCAR-8, Ovarian, 48 h
[32] = system: OVCAR-5; assay: NCI anticancer screen, OVCAR-5; assay type: cell-based, human; details: Homo sapiens; OVCAR-5, Ovarian, 48 h
[33] = system: A498; assay: NCI anticancer screen, A498; assay type: cell-based, human; details: Homo sapiens; A498, Renal, 48 h

COc1cc(CNc2ccc(C(=O)OC(C)(C)C)cc2)cc(CN2CCN(c3ccccn3)CC2)c1O [Compound Q012145T]
GI50 [1]: 37.5 µM
GI50 [2]: > 100 µM
GI50 [3]: 84.3 µM
GI50 [4]: 75.9 µM
GI50 [5]: 23.5 µM
GI50 [6]: 60.1 µM
GI50 [7]: 12.7 µM
GI50 [8]: 80.1 µM
GI50 [9]: 51.6 µM
GI50 [10]: > 100 µM
GI50 [11]: 10.7 µM
GI50 [12]: > 100 µM
GI50 [13]: 33 µM
GI50 [14]: 52.9 µM
GI50 [15]: 51.5 µM
GI50 [16]: 34.6 µM
GI50 [17]: > 100 µM
GI50 [18]: 15.2 µM
GI50 [19]: 67.2 µM
GI50 [20]: > 100 µM
GI50 [21]: 10.2 µM
GI50 [22]: > 100 µM
GI50 [23]: 41.1 µM
GI50 [24]: > 100 µM
GI50 [25]: 46.9 µM
GI50 [26]: > 100 µM
GI50 [27]: > 100 µM
GI50 [28]: 70.4 µM
GI50 [29]: > 100 µM
growth and proliferation of human primary cancer cell-lines (in words) [30]: inhibited growth and proliferation
GI50 [31]: > 100 µM
GI50 [32]: > 100 µM
GI50 [33]: 16.2 µM

CCOC(=O)[C@H](Cc1ccccc1)NCc1cc(CN2CCN(c3ccccn3)CC2)c(O)c(OC)c1 [Compound Q012147T]
GI50 [1]: 86.2 µM
GI50 [2]: > 100 µM
GI50 [3]: > 100 µM
GI50 [4]: 61.9 µM
GI50 [5]: 49.8 µM
GI50 [6]: 83.2 µM
GI50 [7]: 43.2 µM
GI50 [8]: > 100 µM
GI50 [9]: 55.9 µM
GI50 [10]: > 100 µM
GI50 [11]: 18.7 µM
GI50 [12]: 56.6 µM
GI50 [13]: 67.3 µM
GI50 [14]: 76.3 µM
GI50 [15]: > 100 µM
GI50 [16]: 99.9 µM
GI50 [17]: > 100 µM
GI50 [18]: 34.4 µM
GI50 [19]: 94.1 µM
GI50 [20]: > 100 µM
GI50 [21]: 49.3 µM
GI50 [22]: > 100 µM
GI50 [23]: > 100 µM
GI50 [24]: > 100 µM
GI50 [25]: 70.2 µM
GI50 [26]: > 100 µM
GI50 [27]: 78.2 µM
GI50 [28]: 83 µM
GI50 [29]: > 100 µM
growth and proliferation of human primary cancer cell-lines (in words) [30]: inhibited growth and proliferation
GI50 [31]: > 100 µM
GI50 [32]: > 100 µM
GI50 [33]: > 100 µM
